Reference: patent US6867198B2, “Agents and methods for the treatment of proliferative diseases” (Eli Lilly and Company, priority 1999, dated 2005)

target: T1, cyclin D1-cdk4 (Homo sapiens, UniProt P11802); assay: Assay of Cyclin D1-cdk4 Kinase Activity with the ING Peptide as Substrate; assay type: biochemical; settings: ING peptide 200 uM as substrate, 300 uM ATP, 60 minutes at room temperature
Description: Assay of Cyclin D1-cdk4 Kinase Activity with the ING Peptide as Substrate
The cyclin D1-cdk4 kinase activity of a compound was assayed by preparing a 100 ul reaction at the following concentrations: 35 mM Hepes pH 7.0, 10 mM MgCl2, 300 uM ATP, 200 uM ING peptide, 1.0 uCi of γ-^33P-ATP, 4.34 ug of cyclin D-cdk4 enzyme, 4% DMSO, and various concentrations of inhibitor. The reaction was incubated at room temperature (about 74° F.) for 60 minutes, and then terminated by the addition of 100 ul of 10% phosphoric acid. Next, the reaction was filtered through a Millipore Multiscreen-PH Plate—Catalog number MAPH NOB 10, and the plate was washed 2 times with 320 ul each of 0.5% phosphoric acid, followed by the addition of 100 ul of scintillation fluid and quantitation on a Packard Instruments, Top Count, scintillation counter.

T1 sequence (P11802 whole entry): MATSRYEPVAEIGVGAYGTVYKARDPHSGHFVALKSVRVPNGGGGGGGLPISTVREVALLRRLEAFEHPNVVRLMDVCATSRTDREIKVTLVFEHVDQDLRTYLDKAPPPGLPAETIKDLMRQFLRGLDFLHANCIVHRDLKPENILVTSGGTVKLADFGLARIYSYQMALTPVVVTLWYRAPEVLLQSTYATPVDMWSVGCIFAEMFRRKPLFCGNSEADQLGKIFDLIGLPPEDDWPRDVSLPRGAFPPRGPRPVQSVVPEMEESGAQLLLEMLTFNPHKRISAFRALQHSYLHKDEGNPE
T1 sequence (P24385 whole entry partner): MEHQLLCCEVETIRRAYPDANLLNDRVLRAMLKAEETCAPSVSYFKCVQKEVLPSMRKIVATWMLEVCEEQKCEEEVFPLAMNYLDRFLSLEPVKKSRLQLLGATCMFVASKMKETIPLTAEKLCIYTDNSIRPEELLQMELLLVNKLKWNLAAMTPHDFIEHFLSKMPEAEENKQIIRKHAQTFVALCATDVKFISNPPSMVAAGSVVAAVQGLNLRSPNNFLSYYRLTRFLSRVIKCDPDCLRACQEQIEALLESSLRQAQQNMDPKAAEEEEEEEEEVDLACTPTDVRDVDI

IC50	SMILES
0.0368 µM	CN1Cc2cccc3c4c5c(c6c7ccccc7[nH]c6c4n(c23)C1)C(=O)NC5=O [drawing 221]
0.786 µM	O=C1NC(=O)C(c2cn3c4c(cccc24)CCC3)=C1c1c[nH]c2ccccc12 [drawing 222]
0.367 µM	O=C1NC(=O)C(c2cn3c4c(cccc24)CC(CO)C3)=C1c1c[nH]c2ccccc12 (stereo not drawn) [drawing 223]

More lines, now with the values behind:

SMILES	IC50
O=C1NC(=O)c2c1c1c3ccccc3[nH]c1c1c2c2cccc3c2n1CCC3 [drawing 212]	0.105 µM
O=C1NC(=O)c2c1c1c3ccc(CN4CCCC4)cc3[nH]c1c1c2c2cccc3c2n1CCC3 [drawing 220]	0.0513 µM
CC1(C)Cc2cccc3c4c5c(c6c7ccc(CN)cc7[nH]c6c4n(c23)C1)C(=O)NC5=O [drawing 219]	0.173 µM
CN1Cc2cccc3c(C4=C(c5c[nH]c6ccccc56)C(=O)NC4=O)cn(c23)C1	0.455 µM
CC1Cn2c3c(cccc3c3c4c(c5c6ccccc6[nH]c5c32)C(=O)NC4=O)CN1C(=O)[C@H](C)N (stereo partly drawn) [drawing 217]	0.269 µM
O=C1NC(=O)c2c1c1c3ccccc3[nH]c1c1c2c2cccc3c2n1C(CO)CC3 (stereo not drawn)	0.0787 µM
CC1(C)CCn2c3c1cc(F)cc3c1c3c(c4c5ccccc5[nH]c4c12)C(=O)NC3=O [drawing 218]	0.466 µM
O=C1NC(=O)c2c1c1c3ccccc3[nH]c1c1c2c2cccc3c2n1CCC3CO (stereo not drawn)	0.0645 µM
CC1(C)Cc2cccc3c(C4=C(c5c[nH]c6cc(CN)ccc56)C(=O)NC4=O)cn(c23)C1	0.793 µM
CC1(C)CCn2cc(C3=C(c4c[nH]c5ccccc45)C(=O)NC3=O)c3cc(F)cc1c32	1.56 µM
O=C1NC(=O)C(c2cn3c4c(cccc24)CCC3CO)=C1c1c[nH]c2ccccc12 (stereo not drawn)	0.151 µM
O=C1NC(=O)c2c1c1c3ccccc3[nH]c1c1c2c2cccc3c2n1CC(CO)C3 (stereo not drawn)	0.127 µM
CC(C)(C)OC[C@H]1Cn2c3c(cccc3c3c4c(c5c6ccccc6[nH]c5c32)C(=O)NC4=O)CN1 [drawing 213]	0.116 µM

target: T1, cyclin D1-cdk4; assay: Assay of Cyclin D1-cdk4 Kinase Activity with the Rb21 Protein as Substrate; assay type: biochemical; settings: Rb21 protein 5 ug as substrate, 30 uM ATP, 60 minutes at room temperature
Description: Assay of Cyclin D1-cdk4 Kinase Activity with the Rb21 Protein as Substrate
The cyclin D1-cdk4 kinase activity of a compound was assayed by preparing a 100 ul reaction at the following concentrations: 20 mM Hepes pH 7.0, 10 mM MgCl2, 30 uM ATP, 5 ug of Rb21 protein (Santa Cruz Biotech, Catalog #sc-4112), 1.0 uCi of γ-^33P-ATP, 1.09 ug of cyclin D-cdk4 enzyme, 4% DMSO, and various concentrations of inhibitor. The reaction was incubated at room temperature (about 74° F.) for 60 minutes, and then terminated by the addition of 100 ul of 25% trichloroacetic acid. Next, the reaction was filtered through a Millipore Multiscreen-FC Plate—Catalog number MAFC NOB 10, and the plate was washed 2 times with 320 ul each of 10% trichloroacetic acid, followed by the addition of 100 ul of scintillation fluid and quantitation on a Packard Instruments, Top Count, scintillation counter.

IC50	SMILES
0.0301 µM	CC1(C)Cc2cccc3c4c5c(c6c7ccc(CN)cc7[nH]c6c4n(c23)C1)C(=O)NC5=O [drawing 235]
0.0155 µM	CN1Cc2cccc3c4c5c(c6c7ccccc7[nH]c6c4n(c23)C1)C(=O)NC5=O [drawing 237]
0.202 µM	CC1(C)CCn2c3c1cc(F)cc3c1c3c(c4c5ccccc5[nH]c4c12)C(=O)NC3=O [drawing 234]
0.0111 µM	O=C1NC(=O)c2c1c1c3ccc(CN4CCCC4)cc3[nH]c1c1c2c2cccc3c2n1CCC3 [drawing 236]
0.709 µM	O=C1NC(=O)C(c2cn3c4c(cccc24)CCC3)=C1c1c[nH]c2ccccc12 [drawing 238]
0.0666 µM	CC(C)(C)OC[C@H]1Cn2c3c(cccc3c3c4c(c5c6ccccc6[nH]c5c32)C(=O)NC4=O)CN1 [drawing 229]
0.811 µM	O=C1NC(=O)C(c2cn3c4c(cccc24)CC(CO)C3)=C1c1c[nH]c2ccccc12 (stereo not drawn) [drawing 239]
0.065 µM	O=C1NC(=O)c2c1c1c3ccccc3[nH]c1c1c2c2cccc3c2n1CCC3 [drawing 228]
0.18 µM	CC1Cn2c3c(cccc3c3c4c(c5c6ccccc6[nH]c5c32)C(=O)NC4=O)CN1C(=O)[C@H](C)N (stereo partly drawn) [drawing 233]

test system: HCT-116 or NCI H460 cells; assay: Cell Growth Inhibition Assay (MTT); assay type: cell-based; settings: 72 h of drug exposure
Description: Cell Growth Inhibition Assay
The MTT assay was used to measure growth inhibitory activity (Schultz, R. M., et. al. Oncology Res. 5, 223-228, 1993). […] Basically, 1000 HCT-116 or NCI H460 cells were added per well to 96-well flat-bottom plates in 100-ul RPMI 1640 medium containing 10% dialyzed fetal bovine serum. The plates were incubated for 24 h prior to addition of test compounds. A stock solution (10 mM) was prepared in DMSO and serially diluted in medium. Compound dilutions were added to triplicate wells, and the plates were incubated for 72 hours. […].

SMILES	cell growth inhibition
O=C1NC(=O)c2c1c1c3ccccc3[nH]c1c1c2c2cccc3c2n1CCC3 [Example 52, 11H, 12H, 14H-pyrrolo[3,4-c]quinolino[8′,8a′,1′:3,2,1]-pyrrolo[2,3-a]carbazole-5,7-dione]	inhibit cell growth

test system: HCT-116 and NCI H460 cell lines; assay: Cell Cycle Analysis Using Flow Cytometry; assay type: cell-based; settings: compound at 1×IC50 and 3×IC50, 24 hours, DNA histogram analysis
Description: Cell Cycle Analysis Using Flow Cytometry
The HCT-116 and NCI H460 cell lines were seeded in 75 cm^2 flasks at 5×10^5 cells/25 ml RPMI 1640 medium containing 10% dialyzed fetal bovine serum. They were incubated for 24 hours. Compound is then added at 1×IC50 and 3×IC50 (determined from above section “growth inhibition studies”) and incubated for an additional 24 hours. The cells were subsequently harvested and the protocol (Robinson, J. P. and Darzynkiewicz, Z. Current Protocols in Cytometry. 1997) for staining was followed. DNA histogram analysis was performed using ModFit LT (Verity House).

SMILES	cell cycle arrest
O=C1NC(=O)c2c1c1c3ccccc3[nH]c1c1c2c2cccc3c2n1CCC3 [Example 52, 11H, 12H, 14H-pyrrolo[3,4-c]quinolino[8′,8a′,1′:3,2,1]-pyrrolo[2,3-a]carbazole-5,7-dione]	arrest cells in the G1 phase of the cell cycle

test system: Ser-780 pRb phosphorylation in HCT116 cells; assay: Inhibition of Rb Phosphorylation Assay; assay type: cell-based, Human; settings: compound at 1×, 2× and 3×IC50, 24 hours, immunoblot
Description: Inhibition of Rb Phosphorylation Assay
Human HCT116 colon carcinoma cell line was purchased from American Tissue Culture Collection (Rockville, Md.) and maintained as monolayer in RPMI-1640 with L-Glutamine and 25 mM HEPES supplemented with 10% fetal bovine serum in a 37° C. incubator with a 10% CO2 atmosphere. The detection of mycoplasm in cultured cells was performed using Mycoplasma Rapid Detection System (TaKaRa Shuzo Co. Ltd., Shiga, Japan) every 2-3 months and the cells were found consistently negative throughout these experiments. The Rb phosphorylation assay was done be plating 4×10^5 cells/well in 6-well plates. […] At the end of the incubation period the mediumj was removed and the cells were washed twice with cold PBS containing 1 mM sodium orthovanadate (Na3VO4). […] Protein concentration was determined by the Bio-Rad DC protein assay (Bio-Rad, Hercules, Calif.). […] Proteins were detected by capturing image of the membrane using Quantity One Software on a Fluor-S multi-Imager (Bio-Rad, Hercules, Calif.) in a linear range. Specific bands were quantified using Quantity One Software. […] Results are expressed as a percentage inhibition of Ser-780 pRb phosphorylation in drug treated cells versus control DMSO treated cells.

SMILES	inhibition of Ser-780 pRb phosphorylation
O=C1NC(=O)c2c1c1c3ccccc3[nH]c1c1c2c2cccc3c2n1CCC3 [Example 52, 11H, 12H, 14H-pyrrolo[3,4-c]quinolino[8′,8a′,1′:3,2,1]-pyrrolo[2,3-a]carbazole-5,7-dione]	inhibit Rb (retinoblastoma protein) phosphorylation

test system: protein kinase C; assay: not given; settings: cited from earlier work

SMILES	concentration inhibiting protein kinase C
CN1CC[C@H](c2c(O)cc(O)c3c(=O)cc(-c4ccccc4Cl)oc23)[C@H](O)C1 [Flavopiridol]	≥ 10 μM/L

test system: protein kinase A; assay: not given; settings: cited from earlier work

SMILES	concentration inhibiting protein kinase A
CN1CC[C@H](c2c(O)cc(O)c3c(=O)cc(-c4ccccc4Cl)oc23)[C@H](O)C1 [Flavopiridol]	≥ 10 μM/L
